US10682372B2, “Intracellular ATP enhancer” (StaGen Co., Ltd., priority 2015, dated 2020)

What was measured:
[1] = system: model mouse of amyotrophic lateral sclerosis; settings: model mouse of ALS; cited from earlier work
[2] = high-dose administration; cited from earlier work
[3] = Clinical test Phase II: serum uric acid value; format: in vivo, Human
Protocol: (§1) The following administration test was conducted for 16 Japanese healthy adult males, one subject in Phase I and 15 subjects which divided into Groups of A to E for each groups 3 subjects in phase II.
(§2) After the end of Phase I, administration was performed to three subjects of each of the groups as follows:
(§3) Group A: febuxostat 20 mg twice a day for 14 days;
(§4) Group B: inosine 500 mg twice a day for 14 days;
(§5) Group C: febuxostat 20 mg+inosine 500 mg twice a day for 14 days;
(§6) Group D: febuxostat 20 mg+inosine 1000 mg twice a day for 14 days; and
(§7) Group E: febuxostat 30 mg twice a day for 14 days.

[4] = Second administration test: serum uric acid value, single and combined administration; format: in vivo, Human
Protocol: (1) The subject of administration was the same as Test Example 1.
After a sufficient period had elapsed from completion of Test Example 1, febuxostat was administered again at 40 mg/day to the patient, and the serum uric acid value was measured three days later. Subsequently, febuxostat was discontinued and, after a while, administration of 2 g/day of inosine was started (administered at 1 g each after breakfast and dinner) and was followed by combined use of 2 g/day of inosine and 40 mg of febuxostat (administered at 20 mg each after breakfast and dinner). The serum uric acid value was measured at time points shown on the horizontal axis of FIG. 4.

[5] = Clinical test Phase II: urinary uric acid concentration/creatinine concentration; format: in vivo, Human; settings: Week 0 to Week 2
Protocol: Since the urinary uric acid concentration varies with urine volume, a urinary uric acid amount was evaluated by using a urinary uric acid/creatinine value acquired by dividing by urinary creatinine concentration. The measurement method of the uric acid value was the same as Test Example 1.
as §1, §2, §3, §4, §5, §6, §7

[6] = First administration test: serum uric acid value (uricase-peroxidase method); format: in vivo, Human
Protocol: For a clinical chemistry automatic analyzer, a dry clinical chemistry analysis measuring unit manufactured by ARKRAY, Inc. was used, and the serum uric acid value was measured by using the uricase-peroxidase method. A first clinical test was conducted by first administering febuxostat at 40 mg/day (single administration of febuxostat), after a while, additionally administering inosine (combined administration of febuxostat and inosine), and gradually increasing the dosage of inosine from 0.5 to 3 g/day. Meanwhile, blood was collected at the timing shown on the horizontal axis of FIG. 2 to measure the serum uric acid value.

[7] = Clinical test Phase II: blood purine concentration; format: in vivo, Human; settings: for ATP concentration in blood, change: Week 0 to Week 2; for inosine concentration in blood, change: any groups (Groups A to E)
Protocol: Various purines in peripheral blood were measured according to Reference (1). Briefly, peripheral blood was collected with EDTA, mixed with 500 μL+500 μL ice cold 8% PCA, immediately vortexed for five seconds, and centrifuged at 12,000×g for 10 minutes at 4° C., and the supernatant was stored at −80° C. The sample was dissolve in a gathered state, and 40 μL of 2M K2CO3 in 6 M KOH was added to 650 μL of the solution to precipitate PCA and neutralize the solution at the same time. After this solution was centrifuged at 12,000×g for 10 minutes at 4° C., 160 μL of a mobile phase was added to 40 μL of supernatant and apply to HPLC. The conditions of HPLC were also set according to Reference (1) below. The amounts of purines are expressed in molar quantity contained in 1 L of whole blood.
as §1, §2, §3, §4, §5, §6, §7

[8] = Clinical test Phase II: urinary purine concentration; format: in vivo, Human
[9] = in vivo; cited from earlier work
erythrocytes = erythrocytes kept at low temperature for 20 to 30 days, one hour after addition of inosine; cited from earlier work
[10] = in vivo; cited from earlier work; remark: listed apart in the source
[11] = Group A febuxostat 40 mg/day alone
[12] = febuxostat 60 mg/day single administration
[13] = Week 0 to Week 2, single administration of febuxostat
[14] = Week 0 to Week 2, single administration of inosine

## Oc1ncnc2[nH]ncc12 [allopurinol]
[1]
  disease progression of amyotrophic lateral sclerosis: did not inhibit the disease progression
[2]
  symptoms of chronic stable angina: suppressed

## Cc1nc(-c2ccc(OCC(C)C)c(C#N)c2)sc1C(=O)O [febuxostat]
[3]; Group A: febuxostat 20 mg twice a day for 14 days
  reduction of serum uric acid value: 2.53 mg/dL
[3]; Group E: febuxostat 30 mg twice a day for 14 days
  reduction of serum uric acid value: 3.93 mg/dL
[3]; Group E: febuxostat 60 mg/day
  serum uric acid value, lowest observed: less than 2 mg/dL
[3]; any of the administration examples of 40 mg/day of febuxostat
  serum uric acid value, lower limit observed: ≥ 2 mg/dL
[4]; febuxostat 40 mg/day, remaining share of the increase
  suppression by febuxostat of the serum uric acid increasing action of inosine: 22.4%
[4]; three days from febuxostat 40 mg/day
  reduction of serum uric acid value: 3.4 mg/dL
[4]; three days from febuxostat 40 mg/day (20150515), 8.2 mg/dL before (20150501)
  serum uric acid value: 4.8 mg/dL
[5]; febuxostat alone (Groups A and E)
  urinary uric acid/creatinine, change: reduced
[6]; febuxostat 40 mg/day single administration, 2014.07.12, 8.4 mg/dL before (2014.07.05)
  serum uric acid value: 4.7 mg/dL
[6]; febuxostat 40 mg/day, 0 g inosine, 2014.08.23
  serum uric acid value: 4.9 mg/dL
[6]; febuxostat 40 mg/day, previous (first) test
  reduction of serum uric acid value: 3.7 mg/dL
[7]; [11]
  Hx (hypoxanthine) concentration in blood, change: unchanged
  X (xanthine) concentration in blood, change: significantly increased
[7]; Group A febuxostat 40 mg/day
  ATP concentration in blood, change: not changed
[7]; Group E febuxostat 60 mg/day
  ATP concentration in blood, change: No certain tendency was observed
[7]
  inosine concentration in blood, change: no rise
[7]; [12]
  Hx (hypoxanthine) concentration in blood, change: slight rise
  X (xanthine) concentration in blood, change: rise
[8]; Group A: febuxostat 20 mg twice a day
  maximum concentration of urinary X: 556.0 µM
[8]; Group E: febuxostat 30 mg twice a day
  maximum concentration of urinary X: 867.7 µM
[8]; [13]
  urinary Hx, change: moderate rise
  urinary X concentration, change: significantly increased
[1]
  disease progression of amyotrophic lateral sclerosis: inhibits disease progression

## OC[C@H]1O[C@@H](n2cnc3c(O)ncnc32)[C@H](O)[C@@H]1O [inosine]
[3]; Group B: inosine 500 mg twice a day for 14 days
  serum uric acid value, highest observed: up to 8.1 mg/dL
[3]; Group B: inosine 1 g per day, without febuxostat
  rise of serum uric acid value on average: 2.57 mg/dL
[9]
  symptoms of Parkinson's disease: alleviates symptoms
[4]; inosine 2 g/day (1 g after breakfast and dinner), six days later, 8.3 mg/dL before
  serum uric acid value: 13.4 mg/dL
[4]; inosine 2 g/day alone
  rise of serum uric acid value: 5.1 mg/dL
[4]; inosine alone
  rise of serum uric acid value per 1 g/day administration of inosine: 2.55 mg/dL
[5]; Group B inosine alone
  urinary uric acid/creatinine, change: significantly increased
erythrocytes
  ATP in erythrocytes: ATP increased
[10]
  symptoms of multiple sclerosis: alleviates symptoms
[7]; Group B inosine 1 g/day alone
  Hx (hypoxanthine) concentration in blood, change: neither Hx nor X changed
  X (xanthine) concentration in blood, change: neither Hx nor X changed
[7]; Group B inosine 1 g/day
  ATP concentration in blood, change: not changed
[7]
  inosine concentration in blood, change: no rise
[8]; Group B: inosine 500 mg twice a day
  maximum concentration of urinary X: 61.9 µM
[8]; [14]
  urinary Hx, change: no rise
  urinary X, change: no rise
